Row | SMILES | melting point [°C]
1 | CNC(=O)c1cccc(-c2c(Cl)ccc(C(F)(F)F)c2Cl)c1 [1-120, N-methyl-3-(2′,6′-dichloro-3′-trifluoromethylphenyl)benzamide] | 126.1
2 | CCNC(=O)c1cccc(-c2c(Cl)ccc(C(F)(F)F)c2Cl)c1 [1-127, N-ethyl-3-(2′,6′-dichloro-3′-trifluoromethylphenyl)benzamide] | 137
3 | Nc1cccc(-c2c(Cl)cccc2Cl)c1 [1-268, 3-(2′,6′-dichlorophenyl)aniline] | 102
4 | CNC(=O)c1cc(-c2c(Cl)cccc2Cl)ccc1F [2-22, N-methyl-3-(2′,6′-dichlorophenyl)-6-fluorobenzamide] | 142.5
5 | Cc1cc(Oc2ccc(C(F)(F)F)cn2)cc(C)c1-c1cccc(N)c1 [Compound No. 1-57, 4-(3′-aminophenyl)3,5-dimethylphenyl 5-trifluoromethyl-2-pyridyl ether] | 200.3

Next, values leading:

Row | melting point [°C] | SMILES
6 | 142.9 | CNC(=O)c1cccc(-c2c(C)cc(C)cc2C)c1 [1-22, N-methyl-3-(2′,4′,6′-trimethylphenyl)benzamide]
7 | 174.8 | CNC(=O)c1cccc(-c2c(Cl)cccc2Cl)c1 [1-30, N-methyl-3-(2′,6′-dichlorophenyl)benzamide]
8 | 139.6 | CNC(=O)c1cccc(-c2c(C)cc(OC)cc2C)c1 [1-65, N-methyl-3-(2′,6′-dimethyl-4′-methoxyphenyl)benzamide]
9 | 135.3 | CNC(=O)c1cccc(-c2c(Cl)ccc(Cl)c2Cl)c1 [1-72, N-methyl-3-(2′,3′,6′-trichlorophenyl)benzamide]
10 | 158 | CNC(=O)c1cccc(-c2c(Cl)ccc(Br)c2Cl)c1 [1-82, N-methyl-3-(2′,6′-dichloro-3′-bromophenyl)benzamide]
11 | 64.1 | CNC(=O)c1cccc(-c2c(Cl)ccc(N)c2Cl)c1 [1-108, N-methyl-3-(2′,6′-dichloro-3′-aminophenyl)benzamide]
12 | 137.1 | CNC(=O)c1cccc(-c2c(C)cc(Cl)cc2C)c1 [Compound No. 1-23, N-methyl-3-(4′-chloro-2′,6′-dimethylphenyl)benzamide]
13 | 130 | CNC(=O)c1cc(-c2c(C)cc(C)cc2C)ccc1Cl [Compound No. 2-12, N-methyl-6-chloro-3-(2′,4′,6′-trimethylphenyl)benzamide]
